This is an account of results in patent publication US20230390235A1, “THERAPEUTIC AGENT FOR COVID-19” (priority 2020, published 2023).

pIC50: −log10 of the molar value. Where two headings read alike, the source gives them in different places.

Data set [1] in a line: in vivo. Also noted: species or system S.D. rats. Particulars: male, S.D., rat, po. The procedure:
Male S.D. rats weighing 160 to 210 g were used for the examination of SJA-6017. Each animal was kept in a room at a temperature of 23±2° C., a humidity of 55±10%, with lighting for 12 hours, and a ventilation frequency of 15 times/hour or more. The rats were fasted from the night before administration and feeding was resumed immediately after the administration. Water was taken freely.
(§1) For the examination of SNJ-1945, four groups of 1, 3, 10, and 30 mg/kg (n=3 for each) were set. For the examination of SJA-6017, two groups of 100 mg/kg (n=3 for each) and 500 mg/kg (n=8 for each) were set.
For SJA-6017, sodium carboxymethylcellulose was dissolved in distilled water to a concentration of 0.5% (w/v). A test substance was suspended in the resultant to prepare samples having concentrations of 10% (for […]) and 2% (for 100 mg/kg).
(§2) SNJ-1945 was orally administered forcibly a single time by using a gastric sonde at doses of 1, 3, 10, and 30 mg/4 mL/kg. SJA-6017 was orally administered forcibly a single time using a gastric sonde at a dose of 5 mL/kg.
In the SJA-6017 administration group, blood samples were collected from the abdominal aorta under ether anesthesia 30 minutes and 1, 2, 4 and 8 hours after administration. The resulting blood was immediately centrifuged at 5,000 rpm for 10 minutes, and plasma was collected.
Plasma (200 μL) obtained from the SJA-6017 administration group was placed in a brown Spitz tube, and 0.01 M HCl (0.5 mL) was added thereto, and diethyl ether (3 mL) was further added, followed by shaking for 10 minutes. Thereafter, centrifugation (3,000 rpm) for 10 minutes was performed to separate the aqueous layer from the diethyl ether phase. The lower aqueous layer alone was frozen in dry-ice acetone, and the diethyl ether layer was separated into another brown Spitz tube. Thereafter, drying was conducted under reduced pressure, and acetonitrile (100 μL) and a 0.01M hydrochloric acid solution (200 μL) of 5 mM phenylhydrazine hydrochloride were added, followed by stirring and dissolving. The solution was transferred to an HPLC vial and allowed to react for 1 hour at 40° C. using a water bath. 150 μL of this sample solution was analyzed by HPLC.
• Detector: UV absorbance spectrophotometer (measurement • wavelength: 272 nm) • Column: Capcell-pak SG-120 (250 mm) • Column temperature: 40° C. • Mobile phase: 0.02 M phosphate buffer (pH of 7.0)/acetonitrile mixture (45:55) • Flow rate: 1.0 mL/min
Cmax and AUC0-8 were calculated from the mean plasma concentration at each time point.

In data set [2] the test system is SARS-CoV-2 virus (USA_WA1/2020). The experiment in a line: microbe, parasite or virus in culture. The data set is classed as cell-based.
In data set [3] the test system is SARS-CoV-2 S pseudotype virus (wild type: WT). Type of data set: cell-based. Particulars: 100 μM, ACE2-expressing HEK293T cells, GFP fluorescence, FIG. 1.
Data set [4] concerns ACE2-expressing HEK293T cells.
Data set [5] is described as follows: Pharmacokinetic (PK) measurement of SNJ-1945, oral, rats, LC/MS/MS. The data set is classed as in vivo. The following applies: male, S.D., rat plasma; for AUC(0-t): read-out: AUC0-8. How it is done:
Eight-week-old male S.D. rats were used for the examination of SNJ-1945. Each animal was kept in a room at a temperature of 21.6° C. to 22.3° C., a humidity of 47.7% to 60.3%, with lighting for 12 hours/day, and a ventilation frequency of 6 to 20 times/hour. The rats were fasted from the evening of the day before administration, and feeding was resumed after the completion of blood sampling, which was conducted 8 hours after the administration. Water was taken freely.
as §1
For SNJ-1945, methylcellulose was dissolved in water for injection to a concentration of 1 w/v %. A test substance was suspended in the resultant to prepare samples having concentrations of 0.25 mg/mL (for 1 mg/kg), 0.75 mg/mL (for 3 mg/kg), 2.5 mg/mL (for 10 mg/kg), and 7.5 mg/mL (for 30 mg/kg). The administration solution was dispensed into brown glass bottles.
as §2
In the SNJ-1945 administration group, blood samples were taken over time from the subclavian vein 30 minutes and 1, 2, 4, and 8 hours after administration. The obtained blood was immediately centrifuged at 10000×g for 3 minutes, and plasma was collected.
Plasma (20 μL) obtained from the SNJ-1945 administration group was placed in a polypropylene tube, methanol (20 μL) was added thereto, and an internal standard solution (SNJ-1945-d7; 100 μL) was added thereto, followed by stirring for about 5 minutes. Thereafter, centrifugation (10,000×g) was performed for 5 minutes, and 100 μL of a supernatant was transferred to another polypropylene tube. 1 mmol/L EDTA-2K (100 μL) was added, followed by stirring for about 10 seconds. The solution was set in an autosampler and measured within 72 hours.
A Shimadzu 20AD LC System 2 (prominence UFLCXR system; Shimadzu Corporation) and a mass spectrometer (API5000; AB SCIEX) were used as measuring instruments. High-performance liquid chromatography was performed according to the following conditions. Column: CAPCELL CORE AQ, 2.7 μm, 2.1×50 mm (Shiseido Japan Co., Ltd.); column temperature: 60° C.; mobile phase A: 5 mmol/L ammonium hydrogen carbonate/l mmol/LEDTA-2K (500:1, v/v); mobile phase B: methanol; flow rate: 0.8 mL/min.
The mass spectrometer was set according to the following conditions: ionization mode: turbo ion spray; measurement mode: multiple reaction monitoring; detection mode: negative; collision gas: N2, 6 (number of valves opened); curtain gas: N2, 15 psi, ion source gas 1: air, 80 psi; ion source gas 2: air, 80 psi; ion spray voltage: −4500 V; temperature: 500° C.; channel electron multiplier: 1800 V or 2000 V. Monitoring ions and dwell time were set as shown in Table 4 below.
The measurement results of plasma concentration were analyzed by non-compartmental analysis in the pharmacokinetic analysis software Phoenix WinNonlin Ver. 6.3 (Pharsight Corporation as part of Certara), and each pharmacokinetic parameter was calculated in accordance with the method shown in Table 5 below.

[6] abbreviates: Severe acute respiratory syndrome coronavirus 2, Vero C1008, 72 h; read-out: CPE reduction (IC50).
[7] abbreviates: Severe acute respiratory syndrome coronavirus 2, Vero C1008, 72 h, read-out: CPE reduction (IC50).

As a reminder, the Cmax is the highest concentration seen after dosing. One may read the pIC50 as the negative decadic logarithm of the IC50, by convention in mol/L. Regarding `CC(C)C[C@@H](C=O)NC(=O)[C@@H](NS(=O)(=O)c1ccc(F)cc1)C(C)C` [SJA-6017], in data set [1] (100 mg/kg), the AUC(0-t) was determined as 679 ng·h/mL and the peak concentration (Cmax) was 284 ng/mL. Further, in data set [1] (500 mg/kg), the AUC(0-t) came to 1840 ng·h/mL and the Cmax came to 348 ng/mL. Besides, the pIC50 in data set [2] (setting [6]) was 6.68.
In the case of `CCN(CC)CCCC(C)Nc1ccnc2cc(Cl)ccc12` (centres unmarked) [Chloroquine], the pIC50 in data set [2] (setting [7]) is 5.69.
Turning to `CCN(CCO)CCCC(C)Nc1ccnc2cc(Cl)ccc12` (centres unmarked) [Hydroxychloroquine], the pIC50 in data set [2] (setting [7]) is 5.19.
Same read-out and setting: the value for `CCC(CC)COC(=O)[C@H](C)N[P@](=O)(OC[C@H]1O[C@@](C#N)(c2ccc3c(N)ncnn23)[C@H](O)[C@@H]1O)Oc1ccccc1` [Remdesivir] was 4.98.
In the case of `CCOC(=O)[C@H]1O[C@@H]1C(=O)N[C@@H](CC(C)C)C(=O)NCCC(C)C` [E64d], the pIC50 in data set [2] (read-out: CPE reduction (IC50)) was 5.08.
Turning to `COCCOCCOC(=O)N[C@@H](CC(C)C)C(=O)N[C@@H](Cc1ccccc1)C(=O)C(=O)NC1CC1` [SNJ-1945], the “entry inhibition of pseudotype virus into cells” value in data set [3] was “inhibits entry”. Moreover, the “highest concentration at which test compound did not show cytotoxicity” value in data set [4] came out at 100 µM. Also, in data set [2] (setting [6]), the pIC50 was 5.82. For the same compound, the peak concentration (Cmax) is 186 ng/mL in data set [5] (single oral dose 1 mg/kg), 391 ng/mL in data set [5] (single oral dose 3 mg/kg), 553 ng/mL in data set [5] (single oral dose 10 mg/kg) and 821 ng/mL in data set [5] (single oral dose 30 mg/kg). Besides, the AUC(0-t) was determined as 168 ng·h/mL in data set [5] (single oral dose 1 mg/kg), 380 ng·h/mL in data set [5] (single oral dose 3 mg/kg), 691 ng·h/mL in data set [5] (single oral dose 10 mg/kg) and 1170 ng·h/mL in data set [5] (single oral dose 30 mg/kg).
